Assay [1] deals with XMP in human myeloid leukemia cells K562. As to the kind of experiment: XMP in human myeloid leukemia cells K562 (LC-MS/MS). Type of assay: cell-based. Particulars: 24 hours, non-treated = 100%. The method, then:
(§1) A ¾ hydrate of Compound A was used as a test compound.
K562 (available from Riken BioResource Center) was used as a human myeloid leukemia cell.
2×10^7 human myeloid leukemia cells were suspended in a culture flask containing 18 mL of an RPMI1640 medium (manufactured by Life Technologies, Inc.). 2 mL of a PBS solution of the test compound (0 μg/mL, 10 μg/mL, 100 μg/mL, or 1000 μg/mL in terms of Compound A) was added to the flask which was then incubated at 37° C. under 5% CO2 for 24 hours. After centrifugation at 20° C. and 300×g for 3 min, the supernatant was removed and suspended in 10 mL of a PBS solution. Then, after centrifugation at 4° C. and 300×g for 5 min, the supernatant was removed. After stirring with addition of 1000 μL of methanol, 500 μL of ultrapure water was added thereto, followed by further stirring. 600 μL of the reaction solution was divided into each of two tubes, and 400 μL of chloroform was added to each tube. The reaction solution was stirred and then centrifuged at 4° C. and 10000×g for 15 min. 400 μL of the aqueous phase was recovered and added to an ultrafiltration tube, followed by centrifugation at 12° C. and 9200×g for 2 hours. The filtrates were combined and then dried under reduced pressure at 40° C. for 2 hours by using a centrifugal evaporator. After drying, the resulting product was stored in a freezer at −80° C.
The samples stored in (1) and (2) were returned to room temperature and 40 μL of ultrapure water was added to each sample. The mixture was stirred and centrifuged at 4° C. and 21500×g for 5 min. 35 μL of the supernatant was transferred to a vial. After storage at 4° C., XMP in samples was determined in the LC-MS/MS determination instrument, LC conditions and MS/MS conditions described in Example 3 (3).
Amounts of XMP (%) were calculated assuming that the XMP value of a non-Compound A treated group (peak area value) is defined as 100%.

In the next assay the test system is XMP in bone marrow cells. As to the kind of experiment: XMP in bone marrow cells of mice after oral administration. To be noted: 100 mg/kg oral, non-treated = 100%. In kind it is in vivo, female mice (BALB/cAJcl). The method, then: as §1
0.5% MC or 0.5% MC of the test compound (100 mg/kg in terms of Compound A) was orally administered to female mice (BALB/cAJcl).
Right and left femurs of animals were collected under anesthesia by isoflurane inhalation at 1, 4, 8 or 24 hours post-dose, followed by cutting bone ends and centrifuging at 4° C. and 3000 rpm for 1 min to recover bone marrow cells. The recovered bone marrow cells were suspended in 1 mL of PBS, and the number of cells was counted. After centrifugation at 4° C. and 1000×g for 5 min, the supernatant was removed, and 1000 μL of methanol was added to each tube, followed by stirring. Thereafter, 500 μL of ultrapure water was added thereto, followed by further stirring. 600 μL of the reaction solution was divided into each of two tubes, and 400 μL of chloroform was added to each tube. The reaction solution was stirred and then centrifuged at 4° C. and 10000×g for 15 min. 400 μL of the aqueous phase was recovered and added to an ultrafiltration tube, followed by centrifugation at 12° C. and 9200×g for 2 hours. The filtrates were combined and then dried under reduced pressure at 40° C. for 2 hours by using a centrifugal evaporator. After drying, the resulting product was stored in a freezer at −80° C.
The samples obtained in (2-1) and (2-2) were returned to room temperature, and 40 μL of ultrapure water was added to the hemolysis sample and 150 μL of ultrapure water was added to the bone marrow sample. The mixture was stirred and then centrifuged at 4° C. and 21500×g for 5 min. For the hemolysis sample, 35 μL of the supernatant was transferred to a vial. For the bone marrow sample, 140 μL of the supernatant was transferred to a vial. After storage at 4° C., XMP in samples was determined in the LC-MS/MS determination instrument, LC conditions and MS/MS conditions described in Example 3 (3).
Amounts of XMP (%) were calculated assuming that amounts of XMP in a non-Compound A treated group are defined as 100%.

The subject of assay [2] is XMP in human myeloid leukemia cells SKM-1. As to the kind of experiment: XMP in human myeloid leukemia cells SKM-1 (LC-MS/MS). In kind it is cell-based. To be noted: 24 hours; for Amount of XMP (%): non-treated = 100%; for Decline rate of XMP: 100−amount of XMP (%). How it is done:
as §1
SKM-1 was used as a human myeloid leukemia cell.
2×10^7 human myeloid leukemia cells were suspended in a culture flask containing 18 mL of an RPMI1640 medium (manufactured by Life Technologies, Inc.). 2 mL of a PBS solution of the test compound (0 μg/mL, 10 μg/mL, 30 μg/mL, 100 μg/mL, 300 μg/mL, or 1000 μg/mL in terms of Compound A) was added to the flask which was then incubated at 37° C. under 5% CO2 for 24 hours. After centrifugation at 20° C. and 300×g for 3 min, the supernatant was removed and suspended in 10 mL of a PBS solution. 10 μL of the suspension was aliquoted and cells were counted using TC10 (manufactured by BioRad). After centrifugation and 300×g for 5 min, the supernatant was removed. After stirring with addition of 1000 μL of methanol, 500 μL of ultrapure water was added thereto, followed by further stirring. 600 μL of the reaction solution was divided into each of two tubes, and 400 μL of chloroform was added to each tube. The reaction solution was stirred and then centrifuged at 4° C. and 10000×g for 15 min. 400 μL of the aqueous phase was recovered and added to an ultrafiltration tube, followed by centrifugation at 12° C. and 9200×g for about 2 hours. The filtrates were pooled in one tube and then dried under reduced pressure at 40° C. for 2 hours by using a centrifugal evaporator. After drying, the resulting product was stored in a freezer at −80° C.
The samples obtained in (1) were returned to room temperature, to each of which 50 μL of 5 mmol/L ammonium formate containing 4 ng/μL of 2′-fluoro-2′-deoxycytidine monophosphate was then added, followed by stirring. 12.5 μL of the supernatant was transferred to a vial, and XMP in the samples was determined in the following determining conditions.
Amounts of XMP (%) were calculated according to the following equation, assuming that the XMP value of a non-Compound A treated group is defined as 100%.
Amount of XMP (%)=((peak area of XMP)/((peak area of 2′-fluoro-2′-deoxycytidine monophosphate)×(number of cells)))/((peak area of XMP of untreated group)/((peak area of 2′-fluoro-2′-deoxycytidine monophosphate of untreated group) (number of cells of untreated group)))×100
The decline rate of XMP (%) was calculated according to the following equation.
Decline rate of XMP (%)=100−amount of XMP (%)

On to `NC(=O)c1nc[nH]c1O` [Compound A, 5-Hydroxy-1H-imidazole-4-carboxamide], for which the “Amount of XMP (%) K562” value in assay [1] (Compound A 1 μg/mL) amounted to 52%; in assay [1] (Compound A 10 μg/mL), 15%; in assay [1] (Compound A 100 μg/mL), 6%. The “Amount of XMP (%) Bone marrow cell” value in the assay on XMP in bone marrow cells (1 hr post-dose) turned out to be 8.7%; in the assay on XMP in bone marrow cells (4 hr post-dose), 16.5%; in the assay on XMP in bone marrow cells (8 hr post-dose), 25.9%; in the assay on XMP in bone marrow cells (24 hr post-dose) it was 82.7%. Also, the “Amount of XMP (%)” value in assay [2] (SKM-1, Compound A 1 μg/mL) is on record as 57%; in assay [2] (SKM-1, Compound A 10 μg/mL), 45%; in assay [2] (SKM-1, Compound A 100 μg/mL) it was 17%. Also, the “Decline rate of XMP” value is 43% in assay [2] (SKM-1, Compound A 1 μg/mL); 55% in assay [2] (SKM-1, Compound A 10 μg/mL); 83% in assay [2] (SKM-1, Compound A 100 μg/mL).

(Values after patent publication US20160320368A1, “METHOD AND APPARATUS FOR PREDICTING EFFECTIVE DOSE OR SENSITIVITY OF 5-HYDROXY-1H-IMIDAZOLE-4-CARBOXAMIDE, METHOD FOR DETERMINING AMOUNT OF XANTHOSINE MONOPHOSPHATE, AND TREATMENT AGENT AND METHOD FOR TREATING MYELODYSPLASTIC SYNDROME” (FUJIFILM Corporation, priority 2014, published 2016).)
